# From US7638537B2, “Pyrazole compounds as transforming growth factor (TGF) inhibitors” (Pfizer Inc., priority 2002, dated 2009)
# Target: T1, ALK-5 (TβRI) (Homo sapiens, UniProt P36897)
# T1 construct: using either the kinase domain of ALK5 with Smad3 as substrate; GST
# T1 sequence (P36897 205-495 limits assumed): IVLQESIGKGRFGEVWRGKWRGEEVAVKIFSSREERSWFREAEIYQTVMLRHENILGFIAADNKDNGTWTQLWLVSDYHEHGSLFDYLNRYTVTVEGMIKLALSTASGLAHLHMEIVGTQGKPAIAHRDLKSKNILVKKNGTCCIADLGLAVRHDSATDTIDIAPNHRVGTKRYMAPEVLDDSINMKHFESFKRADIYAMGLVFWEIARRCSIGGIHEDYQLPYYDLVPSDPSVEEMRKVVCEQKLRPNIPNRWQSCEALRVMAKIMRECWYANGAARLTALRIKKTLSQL
# Test: ALK-5 (TβRI) Kinase Assay
# Type: biochemical
# Protocol: The kinase assays were performed with 65 nM GST-ALK5 and 84 nM GST-Smad3 in 50 mM HEPES, 5 mM MgCl2, 1 mM CaCl2, 1 mM dithiothreitol, and 3_M ATP. Reactions were incubated with 0.5_Ci of [33 P]_ATP for 3 h at 30° C. Phosphorylated protein was captured on P-81 paper (Whatman, Maidstone, England), washed with 0.5% phosphoric acid, and counted by liquid scintillation. Alternatively, Smad3 or Smad1 protein was also coated onto FlashPlate Sterile Basic Microplates (PerkinElmer Life Sciences, Boston, Mass.). Kinase assays were then performed in Flash-Plates with same assay conditions using either the kinase domain of ALK5 with Smad3 as substrate or the kinase domain of ALK6 (BMP receptor) with Smad1 as substrate. Plates were washed three times with phosphate buffer and counted by TopCount (Packard Bio-science, Meriden, Conn.). (Laping, N. J. et al. Molecular Pharmacology 62:58-64 (2002)).
structure (smiles),measurement,value
"c1ccc(-c2n[nH]cc2-c2ccc3c(c2)OCO3)nc1 [Example 7, 2-(4-Benzo[1,3]dioxol-5-yl-1H-pyrazol-3-yl)-pyridine]",IC50,~0.051 µM
